“Also recorded” adds a separate entry of the source. Like-named read-outs stand apart in the source and are kept apart here.
Legend:
O-GlcNAcase [1] = target: T1, O-GlcNAcase (Homo sapiens, UniProt O60502)
T1 sequence (O60502 1-916): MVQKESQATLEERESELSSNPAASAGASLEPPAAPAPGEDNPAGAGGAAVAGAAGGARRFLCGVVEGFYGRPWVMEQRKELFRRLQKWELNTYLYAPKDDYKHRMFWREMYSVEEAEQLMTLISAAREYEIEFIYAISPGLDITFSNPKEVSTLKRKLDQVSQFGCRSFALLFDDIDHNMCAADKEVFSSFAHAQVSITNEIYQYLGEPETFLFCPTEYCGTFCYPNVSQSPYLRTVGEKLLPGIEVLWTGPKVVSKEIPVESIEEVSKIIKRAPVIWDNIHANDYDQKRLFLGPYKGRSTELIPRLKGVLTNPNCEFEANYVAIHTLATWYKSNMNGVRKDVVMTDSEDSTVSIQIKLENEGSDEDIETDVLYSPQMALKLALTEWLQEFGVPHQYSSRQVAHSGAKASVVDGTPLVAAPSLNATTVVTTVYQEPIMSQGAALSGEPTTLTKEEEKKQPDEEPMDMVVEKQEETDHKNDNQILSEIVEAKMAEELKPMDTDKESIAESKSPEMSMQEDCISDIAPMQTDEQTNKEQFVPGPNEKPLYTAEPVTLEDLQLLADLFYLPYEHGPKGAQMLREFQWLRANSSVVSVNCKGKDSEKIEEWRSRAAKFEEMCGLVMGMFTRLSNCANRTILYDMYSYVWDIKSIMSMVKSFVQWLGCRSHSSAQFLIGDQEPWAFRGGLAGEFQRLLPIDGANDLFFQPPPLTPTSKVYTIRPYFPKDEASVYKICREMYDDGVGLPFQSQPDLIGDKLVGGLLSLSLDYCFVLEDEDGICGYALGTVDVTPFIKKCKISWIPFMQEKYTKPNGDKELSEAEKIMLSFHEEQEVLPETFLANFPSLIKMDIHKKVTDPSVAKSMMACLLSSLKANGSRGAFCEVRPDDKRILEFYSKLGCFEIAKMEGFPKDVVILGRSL

O-GlcNAcase [2] = settings: read-out: IC50, O-GlcNAcase, previous determinations; cited from earlier work
[3] = Decomposition of STZ in D2O followed by NMR; settings: room temperature
O-GlcNAcase [4] = target: T1, O-GlcNAcase; assay: Time dependent inactivation of O-GlcNAcase by STZ
β-hexosaminidase = assay: Time dependent inactivation of β-hexosaminidase by STZ; settings: 10 mM STZ, pH 4.25, over six hours
[5] = target: human placental β-hexosaminidase; assay: Inhibition of β-hexosaminidase, substrate MU-GlcNAc (5), Dixon plots
[6] = system: O-GlcNAc-modified proteins in COS-7 cells; assay: Western blot of O-GlcNAc-modified proteins in COS-7 cells cultured with inhibitors; assay type: cell-based; settings: 50 μM inhibitor, 40 hours, Western blot
Method: (§1) COS-7 cells were cultured in DMEM medium (Invitrogen) supplemented with 5-10% FBS (Invitrogen). Aliquots of inhibitors (50 μL of a stock in 95% ethanol) were delivered onto tissue culture plates and the ethanol was evaporated. The cells were incubated at 37° C. for 40 hours at which time they reached approximately 80% confluence. […] COS-7 cells were cultured to 25% confluence in 5% FBS and an aliquot (100 μL) of inhibitor dissolved in media and filter sterilized was added to each plate to yield a final concentration of 50 μM of inhibitor. COS-7 cells (2×10 cm plates) were harvested at the appropriate times by scraping and were pooled by centrifugation (200×g, 10 min). Cells were washed once with PBS, pH 7.0 (10 mL) and pelleted (200×g, 10 min). The cells could be frozen at −80° C. at this point. Control cultures without inhibitors were treated in the same manner.
A culture of control cells was treated in the same manner as follows but the cultures contained no inhibitor. Cells were harvested as described above. Frozen cells were thawed at 4° C., and cold lysis buffer (1 mL of 50 mM Tris, pH 8.0 containing 150 mM NaCl, 1 mM EDTA, 1 mM PMSF, 1% NP-40, 0.5% sodium deoxycholate, and 1 mM of inhibitor 90) was added. After 10 minutes at 4° C. the solution was centrifuged at 14,000 rpm in an Eppendorf 5415C microcentrifuge and the supernatant was collected. SDS/PAGE loading buffer was added to an aliquot (15 μL) of each sample, and after heating at 96° C. aliquots were loaded onto 10% or 12% Tris-HCl polyacrylamide gels. After electrophoresis, the samples were electroblotted to nitrocellulose membrane (0.45 μm, Bio-Rad). Transfer was verified by visual inspection of the transfer of prestained markers (Dual Colour Precision Plus Protein Standard—Biorad). The membrane was blocked by using 5% BSA (fraction V, Sigma) in PBS (blocking buffer A for samples probed with mouse anti-O-GlcNAc monoclonal IgM antibody (MAb CTD 110.6—Covance)) or 5% low-fat dry powdered milk (blocking buffer B for samples probed with anti-β-actin), pH 7.4, containing 0.1% Tween 20 for 1 h at room temperature or overnight at 4° C. The blocking solution was decanted, and a solution of blocking buffer A containing MAb CTD 110.6 (1:2500 of the stock) or blocking buffer B containing mouse monoclonal anti-β-actin IgG (Clone AC-40—Sigma) was added (1:1000 dilution) as appropriate. The membrane was incubated at room temperature for 1 h or overnight at 4° C. after which the blocking buffer was decanted and the membrane was rinsed with PBS, pH 7.4, containing 0.1% Tween 20 (wash buffer). Membranes were then rinsed for 2×5 min and 3×15 min with wash buffer. For immunological detection of O-GlcNAc, the membrane was incubated in blocking buffer A for 1 hour at RT and, after washing, the membrane was incubated with a secondary goat anti-mouse-IgM-HRP-conjugate (1:2500, Santa Cruz Biotech) for one hour at RT or 4° C. overnight in blocking solution. For detection of β-actin levels, the membrane was incubated with a secondary goat anti-mouse-IgG-HRP conjugate (1:100000, Sigma) for one hour at RT or 4° C. overnight in blocking solution B. Membranes were washed and detection of membrane bound goat anti-mouse-IgG-HRP conjugate was accomplished by chemiluminescent detection using the SuperSignal West Pico Chemiluminescent Detection Kit (Pierce) and film (Kodak Biomax MR).

COS-7 cells = assay: Proliferation rate and morphology of COS-7 cells incubated with inhibitors; assay type: cell-based; settings: 50 μM inhibitor
Method: as §1

Row | binding more tightly than GlcNAc, β-hexosaminidase [5] [fold] | Compound | inhibition of O-GlcNAcase, in words (O-GlcNAcase [1]) | selectivity for O-GlcNAcase over β-hexosaminidase, in words (O-GlcNAcase [1]) | selectivity ratio for O-GlcNAcase over β-hexosaminidase (O-GlcNAcase [1]) [fold] | Selectivity Ratio (β-Hex KI/O-GlcNAcase KI) (O-GlcNAcase [1]; Table 2) | Ki (O-GlcNAcase [1]; read-out: KI, O-GlcNAcase, pH 6.5) [mM] | IC50 (O-GlcNAcase [2]) [mM] | half-life in aqueous solution (D2O) [3] | time dependent inactivation of O-GlcNAcase (O-GlcNAcase [4]; 10 mM STZ, pH 6.5, over six hours) | expected ratio of reaction velocities VControl/VSTZ, O-GlcNAcase (O-GlcNAcase [4]; calculated assuming competitive inhibition, KI=1.5 mM, 1.2 mM STZ in assay) | time dependent inactivation of β-hexosaminidase (β-hexosaminidase) | Ki ([5]; read-out: KI, β-hexosaminidase, human lysosomal β-hexosaminidase) [mM] | Ki ([5]; read-out: β-Hexosaminidase KI, Table 2, substrate 5 at 0.64 mM, pH 4.25, Dixon plots) [mM] | cellular levels of O-GlcNAc-modified proteins compared to control [6] | proliferation rate or morphology compared to control cells (COS-7 cells)
1 |  | CN(N=O)C(=O)N[C@H]1C(O)O[C@H](CO)[C@@H](O)[C@@H]1O (mixture of isomers) [STZ, streptozotocin] | poor inhibitor | moderate selectivity | 31 | 31 | 1.5 | 1 to 2.5 | greater than 6 hours | did not act as a time dependent inactivator; also recorded: does not show a time dependent inactivation | 1.17 | did not act as a time dependent inactivator; also recorded: does not show a time dependent inactivation | 47 | 47 |  | 
2 | 17000 | CC1=N[C@@H]2[C@@H](O)[C@H](O)[C@@H](CO)O[C@@H]2S1 [Compound 9a, 2′-methyl-α-D-glucopyrano-[2,1-d]-Δ2′-thiazoline, reference compound] |  |  |  |  |  |  |  |  |  |  |  |  | Marked increases; also recorded: increase in cellular levels of O-GlcNAc-modified proteins | no abnormalities in proliferation rate or morphology
3 |  | CC(C)CC1=NC2C(OC(CO)C(O)C2O)S1 [Compound 9g, 1,2-dideoxy-2′-isobutyl-α-D-glucopyranoso-[2,1-d]-42′-triazoline D] | good inhibitors |  |  |  |  |  |  |  |  |  |  |  | Marked increases; also recorded: increase in cellular levels of O-GlcNAc-modified proteins | no abnormalities in proliferation rate or morphology

Source: patent US20080287375A1, “Selective Glycosidase Inhibitors, Methods of Making Inhibitors, and Uses Thereof” (SIMON FRASER UNIVERSITY, priority 2005, published 2008)
